In ChEMBL document CHEMBL4033666, “Synthesis and mechanistic evaluation of novel N'-benzylidene-carbohydrazide-1H-pyrazolo[3,4-b]pyridine derivatives as non-anionic antiplatelet agents” (Eur J Med Chem, 2017):
The source made the active and inactive calls. Unless noted, no cut-off for these calls is given here.

What was measured:
[1] = Hemolytic activity against human erythrocytes after 3 hrs relative to control; format: ADME, cell-based, Erythrocyte; settings: read-out: Activity
Platelet [2] = assay: Antiplatelet activity in human platelet rich plasma assessed as inhibition of collagen-induced platelet aggregation at 100 uM preincubated for 2 mins followed by collagen addition by turbidimetric method relative to control; format: cell-based
Plasma [3] = assay: Change in prothrombin time in human plasma at 100 uM incubated for 15 mins at room temperature and 2 mins at 37 degC in presence of calcium thromboplastin; format: ADME, cell-free
Platelet [4] = assay: Antiplatelet activity in human platelet rich plasma assessed as inhibition of arachidonic acid-induced platelet aggregation at 100 uM preincubated for 2 mins followed by arachidonic acid addition by turbidimetric method relative to control; format: functional
Platelet [5] = assay: Antiplatelet activity in human platelet rich plasma assessed as inhibition of ADP-induced platelet aggregation at 100 uM preincubated for 2 mins followed by ADP addition by turbidimetric method relative to control; format: cell-based
Plasma [6] = assay: Change in activated partial thromboplastin time in human plasma at 100 uM incubated for 15 mins at room temperature and 2 mins at 37 degC in presence of CaCl2; format: ADME, cell-free
Platelet [7] = assay: Antiplatelet activity in human platelet rich plasma assessed as inhibition of epinephrine-induced platelet aggregation at 100 uM preincubated for 2 mins followed by epinephrine addition by turbidimetric method relative to control; format: cell-based
[8] = target: T1, Prostaglandin G/H synthase 2 (Homo sapiens, UniProt P35354); assay: Inhibition of recombinant human COX-2 assessed as reduction in PGH2 production up to 100 uM using arachidonic acid as substrate preincubated for 5 mins followed by substrate and hematin addition measured after 2 mins by ELISA relative to control
T1 sequence (P35354 whole entry): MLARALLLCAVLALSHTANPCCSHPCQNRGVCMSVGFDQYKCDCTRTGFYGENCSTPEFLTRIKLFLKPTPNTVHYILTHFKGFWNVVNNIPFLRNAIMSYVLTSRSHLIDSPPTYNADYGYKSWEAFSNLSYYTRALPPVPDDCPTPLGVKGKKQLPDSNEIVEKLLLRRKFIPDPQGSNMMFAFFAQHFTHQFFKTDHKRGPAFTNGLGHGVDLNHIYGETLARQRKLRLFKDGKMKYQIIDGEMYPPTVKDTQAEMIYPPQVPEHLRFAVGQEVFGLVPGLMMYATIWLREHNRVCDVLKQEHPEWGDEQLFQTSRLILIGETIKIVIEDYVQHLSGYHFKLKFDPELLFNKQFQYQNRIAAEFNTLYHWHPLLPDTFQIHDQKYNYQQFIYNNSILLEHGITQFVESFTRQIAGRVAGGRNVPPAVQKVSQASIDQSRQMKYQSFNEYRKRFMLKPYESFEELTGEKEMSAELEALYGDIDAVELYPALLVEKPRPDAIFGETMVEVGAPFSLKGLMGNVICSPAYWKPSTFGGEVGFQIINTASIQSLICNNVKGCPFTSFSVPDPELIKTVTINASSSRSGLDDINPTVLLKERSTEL

Platelet [9] = assay: Antiplatelet activity in human platelet rich plasma assessed as inhibition of epinephrine-induced platelet aggregation preincubated for 2 mins followed by epinephrine addition by turbidimetric method; format: cell-based
Platelet [10] = assay: Antiplatelet activity in human platelet rich plasma assessed as inhibition of arachidonic acid-induced platelet aggregation preincubated for 2 mins followed by arachidonic acid addition by turbidimetric method relative to control; format: functional, cell-based
[11] = target: T2, Prostaglandin G/H synthase 1 (Ovis aries, UniProt P05979); assay: Inhibition of ovine COX-1 assessed as reduction in PGH2 production up to 100 uM using arachidonic acid as substrate preincubated for 5 mins followed by substrate and hematin addition measured after 2 mins by ELISA relative to control; settings: sheep
T2 sequence (P05979 whole entry): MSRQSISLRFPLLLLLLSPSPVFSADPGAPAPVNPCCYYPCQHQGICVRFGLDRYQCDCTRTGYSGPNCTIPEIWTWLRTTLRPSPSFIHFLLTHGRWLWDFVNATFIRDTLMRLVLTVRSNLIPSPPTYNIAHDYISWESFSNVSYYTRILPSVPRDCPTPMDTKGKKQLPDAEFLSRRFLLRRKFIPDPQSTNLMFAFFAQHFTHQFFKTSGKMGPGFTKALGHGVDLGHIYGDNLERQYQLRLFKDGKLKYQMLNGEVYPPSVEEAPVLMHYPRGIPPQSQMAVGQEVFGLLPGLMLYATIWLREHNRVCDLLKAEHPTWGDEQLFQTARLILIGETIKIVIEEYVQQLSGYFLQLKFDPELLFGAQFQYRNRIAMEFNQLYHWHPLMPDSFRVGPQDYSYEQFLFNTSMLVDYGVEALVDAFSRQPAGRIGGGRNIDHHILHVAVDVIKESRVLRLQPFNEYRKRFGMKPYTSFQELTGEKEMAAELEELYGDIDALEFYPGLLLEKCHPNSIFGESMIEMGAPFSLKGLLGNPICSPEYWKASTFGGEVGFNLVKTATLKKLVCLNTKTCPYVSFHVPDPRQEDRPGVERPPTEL

Cytochrome P450 3A4 = Cytochrome P450 3A4 (Homo sapiens, UniProt P08684); assay: Inhibition of recombinant human CYP3A4 expressed in baculosomes using BOMR as substrate preincubated for 10 mins followed by substrate/NADP+ addition measured for 1 hr; format: ADME; settings: for inhibition (INH): human, recombinant enzyme, 1 h
[12] = Binding affinity to DOPC/DOPS large unilamellar vesicles assessed as blue shift at 100 uM by DAPI staining based fluorescence assay
Platelet [13] = assay: Potency index, ratio of aspirin IC50 to test compound IC50 for inhibition of arachidonic acid-induced platelet aggregation in human platelet rich plasma; format: functional
Platelet [14] = assay: Potency index, ratio of ozagrel IC50 to test compound IC50 for inhibition of arachidonic acid-induced platelet aggregation in human platelet rich plasma; format: functional
Blood = assay: Reduction of clot retraction in human whole blood after 2 hrs; format: ADME, tissue-based
Platelet [15] = assay: Antiplatelet activity in human platelet rich plasma assessed as inhibition of collagen-induced platelet aggregation preincubated for 2 mins followed by collagen addition by turbidimetric method; format: cell-based
Platelet [16] = assay: Drug uptake in human platelet assessed as co-localization with CD31 at 100 uM by confocal microscopy analysis; format: ADME, cell-based
Platelet [17] = assay: Antiplatelet activity in human platelet rich plasma assessed as inhibition of […]-induced platelet aggregation at 100 uM preincubated for 2 mins followed by […] addition by turbidimetric method; format: functional, cell-based
[18] = target: Prostaglandin G/H synthase 1 (Homo sapiens, UniProt P23219); assay: Inhibition of COX1 in human platelet rich plasma assessed as decrease in PGE2 production at 100 uM using arachidonic acid as substrate after 5 mins by ELISA
Platelet [19] = assay: Antiplatelet activity in human platelet rich plasma assessed as inhibition of ADP-induced platelet aggregation preincubated for 2 mins followed by ADP addition by turbidimetric method; format: cell-based
Platelet [20] = assay: Drug uptake in human platelet assessed as co-localization with CD31 at 100 uM by epifluorescence assay; format: ADME, cell-based
[21] = target: T3, Thromboxane-A synthase (Homo sapiens) (UniProt P24557); assay: Inhibition of TXS in human platelet rich plasma assessed as decrease in TXB2 production at 100 uM using arachidonic acid after 5 mins by ELISA
T3 sequence (whole entry): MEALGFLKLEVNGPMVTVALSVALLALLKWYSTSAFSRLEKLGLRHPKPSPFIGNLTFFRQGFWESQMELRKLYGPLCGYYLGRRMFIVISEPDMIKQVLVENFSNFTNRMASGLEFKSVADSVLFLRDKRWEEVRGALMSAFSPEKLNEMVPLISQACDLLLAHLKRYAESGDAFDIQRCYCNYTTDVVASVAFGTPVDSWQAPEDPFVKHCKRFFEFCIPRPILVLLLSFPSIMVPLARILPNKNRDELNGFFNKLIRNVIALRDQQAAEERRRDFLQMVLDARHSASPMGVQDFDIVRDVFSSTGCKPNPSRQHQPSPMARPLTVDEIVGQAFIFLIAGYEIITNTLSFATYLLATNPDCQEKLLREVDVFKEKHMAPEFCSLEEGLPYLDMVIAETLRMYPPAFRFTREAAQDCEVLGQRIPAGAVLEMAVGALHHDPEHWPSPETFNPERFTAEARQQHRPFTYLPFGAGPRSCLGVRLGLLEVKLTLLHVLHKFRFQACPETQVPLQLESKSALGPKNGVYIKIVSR

[22] = Selectivity ratio of IC50 for recombinant human CYP3A4 to IC50 for arachidonic acid-induced platelet aggregation in human platelet rich plasma

Sequence of Cytochrome P450 3A4 (P08684 whole entry): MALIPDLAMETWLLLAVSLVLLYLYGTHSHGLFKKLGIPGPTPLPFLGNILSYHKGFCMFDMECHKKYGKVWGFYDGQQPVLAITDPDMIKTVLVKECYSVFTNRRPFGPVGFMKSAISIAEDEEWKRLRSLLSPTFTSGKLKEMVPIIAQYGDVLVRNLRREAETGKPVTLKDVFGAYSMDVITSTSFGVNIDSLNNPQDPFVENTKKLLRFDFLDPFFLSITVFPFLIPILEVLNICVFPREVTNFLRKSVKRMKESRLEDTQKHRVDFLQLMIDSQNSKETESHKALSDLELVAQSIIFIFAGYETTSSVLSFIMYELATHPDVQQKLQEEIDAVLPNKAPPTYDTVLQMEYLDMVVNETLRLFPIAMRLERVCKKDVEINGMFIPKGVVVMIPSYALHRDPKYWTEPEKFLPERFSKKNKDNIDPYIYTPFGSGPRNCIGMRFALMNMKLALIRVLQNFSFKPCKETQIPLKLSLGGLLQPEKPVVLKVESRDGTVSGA
Sequence of Prostaglandin G/H synthase 1 (Homo sapiens, UniProt P23219) (P23219 whole entry): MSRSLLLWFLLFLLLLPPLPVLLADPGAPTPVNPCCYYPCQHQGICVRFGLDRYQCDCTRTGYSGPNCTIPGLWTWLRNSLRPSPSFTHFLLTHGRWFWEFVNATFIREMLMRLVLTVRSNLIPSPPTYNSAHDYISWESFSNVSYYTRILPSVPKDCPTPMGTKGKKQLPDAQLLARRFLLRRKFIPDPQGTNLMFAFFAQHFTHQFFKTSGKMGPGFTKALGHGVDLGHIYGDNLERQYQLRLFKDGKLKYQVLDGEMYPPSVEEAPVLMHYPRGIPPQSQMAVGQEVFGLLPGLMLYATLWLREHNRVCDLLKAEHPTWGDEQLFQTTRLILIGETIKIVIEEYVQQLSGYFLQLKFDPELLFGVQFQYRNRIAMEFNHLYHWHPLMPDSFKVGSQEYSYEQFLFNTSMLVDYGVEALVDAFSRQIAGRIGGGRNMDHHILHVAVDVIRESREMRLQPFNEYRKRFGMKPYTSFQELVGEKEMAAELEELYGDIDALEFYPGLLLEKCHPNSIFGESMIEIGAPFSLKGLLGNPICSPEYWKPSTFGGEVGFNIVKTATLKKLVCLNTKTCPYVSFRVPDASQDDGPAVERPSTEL

SMILES | hemolysis at 3 h [1] | inhibition at 100 µM (Platelet [2]) | Activity (Plasma [3]) | inhibition at 100 µM (Platelet [4]) | inhibition at 100 µM (Platelet [5]) | Activity (Plasma [6]) | inhibition at 100 µM (Platelet [7]) | inhibition (INH) [8] | IC50 (Platelet [9]) | IC50 (Platelet [10]) | inhibition (INH) [11] | Activity [12] | Activity (Blood) | IC50 (Platelet [15]) | Drug uptake (Platelet [16]) | inhibition (Platelet [17]) | inhibition (INH) [18] | IC50 (Platelet [19]) | Drug uptake (Platelet [20]) | inhibition [21] | further results
Cc1nn(-c2ccccc2)c2nc(C(F)(F)F)cc(C(=O)N/N=C/c3ccc(O)cc3)c12 | 99% | 13.3% | Non-Toxic | 10.4% | 12.5% | Non-Toxic | 15.9% |  |  |  |  |  |  |  |  |  |  |  |  |  | 
CCOc1ccc(/C=N/NC(=O)c2cc(C(F)(F)F)nc3c2c(C)nn3-c2ccccc2)cc1 | 30% | 2% | Non-Toxic | 1.26% | 5.55% | Non-Toxic | 13.1% |  |  |  |  |  |  |  |  |  |  |  |  |  | 
Cc1cc(C(=O)N/N=C/c2ccc(F)cc2)c2c(C)nn(-c3ccccc3)c2n1 | 5% | 9.19% | Non-Toxic | 95.4% | 13.8% | Non-Toxic | 3.88% | Not Active | > 100 µM | 3.67 to 10.2 µM | Not Active | Active | Non-Toxic | > 100 µM | Active | inactive | Not Active | > 100 µM | Active | Active | inhibition (INH) (Cytochrome P450 3A4): Dose-dependent effect; Ratio IC50 (Platelet [13]): <=10; Ratio IC50 (Platelet [14]): <=10
Cc1cc(C(=O)N/N=C/c2ccc(Br)cc2)c2c(C)nn(-c3ccccc3)c2n1 | 5% | 17% | Non-Toxic | 94.8% | 9.4% | Non-Toxic | 11.8% | Not Active | > 100 µM | 3.67 to 10.2 µM | Not Active | Active | Non-Toxic | > 100 µM | Active | inactive | Not Active | > 100 µM | Active | Active | IC50 (Cytochrome P450 3A4): 138 µM; Ratio IC50 (Platelet [13]): <=10; Ratio IC50 (Platelet [14]): <=10; Ratio IC50 [22]: 20 to 30
Cc1ccc(/C=N/NC(=O)c2cc(C)nc3c2c(C)nn3-c2ccccc2)cc1 |  | 5.58% | Non-Toxic | 89.2% | 6.2% | Non-Toxic | 0% | Not Active | > 100 µM | 3.67 to 10.2 µM | Not Active | Active | Non-Toxic | > 100 µM | Active | inactive | Not Active | > 100 µM | Active | Active | inhibition (INH) (Cytochrome P450 3A4): Dose-dependent effect; Ratio IC50 (Platelet [13]): <=10; Ratio IC50 (Platelet [14]): <=10
CC(=O)Oc1ccccc1C(=O)O [ASPIRIN] |  | 85.3% |  | 96.6% | 41.9% |  | 58.6% |  |  | 37.6 µM |  |  |  |  |  |  |  |  |  | Active | 
Cc1cc(C(=O)N/N=C/c2ccc(Cl)cc2)c2c(C)nn(-c3ccccc3)c2n1 | 10% | 35.3% | Non-Toxic | 83.8% | 3.4% | Non-Toxic | 1.1% | Not Active | > 100 µM | 3.67 to 10.2 µM | Not Active | Active | Non-Toxic | > 100 µM | Active | inactive | Active | > 100 µM | Active | Active | IC50 (Cytochrome P450 3A4): 94.6 µM; Ratio IC50 (Platelet [13]): <=10; Ratio IC50 (Platelet [14]): <=10; Ratio IC50 [22]: 20 to 30
Cc1cc(C(=O)N/N=C/c2ccc([N+](=O)[O-])cc2)c2c(C)nn(-c3ccccc3)c2n1 | 7.3% | 4.1% | Non-Toxic | 95% | 0% | Non-Toxic | 4.15% | Not Active | > 100 µM | 78.9 µM | Not Active | Active | Non-Toxic | > 100 µM | Active | inactive | Not Active | > 100 µM | Active | Active | IC50 (Cytochrome P450 3A4): 156 µM
O=C(O)/C=C/c1ccc(Cn2ccnc2)cc1 [OZAGREL] |  |  |  |  |  |  |  |  |  | 53.1 µM |  |  |  |  |  |  |  |  |  | Active | 
